According to US20200179392A1, “Idelalisib for Treating Proliferative Vitreoretinopathy and Abnormal Intraocular Neovascularization” (priority 2016, published 2020):

Tested on: phosphorylation of Akt at serine 473
Test: Western blot of Akt phosphorylation (S473) in RPEM cells stimulated with vitreous or PDGF
Type: cell-based, human
Description: 1B. After growth factor-deprivation, the RPEM cells were pretreated with idelalisib at indicated concentrations, or its vehicle for 30 minutes, and then treated with normal rabbit vitreous diluted (1:2) in DMEM (RV), V: vehicle (0.1% dimethyl sulfoxide) or PDGF-B (10 ng/ml). After the treatment for 30 minutes at 37° C., their lysates were subjected to a western blot analysis using the indicated antibodies. This is representative of three independent experiments. Cells grown to 90% confluence in wells of 24-well plates were serum starved for 24 hours, and then treated with appropriated agents. After two washes with ice-cold phosphate buffered saline (PBS), the cells were lysed in 1× sample buffer diluted with protein extraction buffer (10 mM Tris-HCl, pH 7.4; 5 mM […] (EDTA), 50 mM NaCl, 50 mM NaF, 1% Triton X-100, 20 μg/ml aprotinin, 2 mM Na3VO4, 1 mM phenylmethylsulfonyl fluoride] from 5× sample buffer [25 mM EDTA, 10% sodium dodecyl sulfate (SDS), 500 mM dithiothreitol (DTT), 50% sucrose, 500 mM Tris.HCl (pH=6.8), 0.5% bromophenol blue). The samples were boiled for 5 minutes and then centrifuged for 5 minutes at 13,000×g, 4° C. […] Signal intensity was determined by densitometry using NIH imageJ software^24, 44, 50.

CC[C@H](Nc1ncnc2[nH]cnc12)c1nc2cccc(F)c2c(=O)n1-c1ccccc1 [idelalisib]
inhibition of vitreous-stimulated phosphorylation of Akt at serine 473 (idelalisib 1.0 μM, 30 min pretreatment, rabbit vitreous 1:2 for 30 min): completely inhibited
inhibition of PDGF-stimulated activation of Akt (idelalisib 10.0 μM (selective dose for PI3Kδ), PDGF-B 10 ng/ml): neither inhibited
